Measured values as given in patent publication EP0676201B1, “Use of a riminophenazine for treating MDR resistance” (priority 1994, dated 1995).
Values after ≈ are worked out from the molar mass of the structure shown. Read-outs that look alike come from different tables or passages of the source.

Tested on: K562/MMB
Experiment: MTT assay, 7-day exposure to riminophenazines alone or with fixed doxorubicin or vinblastine (Example 4)
Assay type: cell-based
Settings: Homo sapiens, K562, 168 h
[1] = in the presence of doxorubicin (12 ng/ml), read-out: IC 50 of riminophenazine, Doxorubicin
[2] = in the presence of vinblastine (3 ng/ml), read-out: IC 50 of riminophenazine, Vinblastine
[3] = riminophenazine alone, mean of 2 experiments, read-out: IC 50 of riminophenazine, None

From the text: A third cell line (562/MMB) used was a MDR leukemia cell line selected in vitro by progressive exposure to increasing concentrations of vinblastine in order to increase P-glycoprotein expression. […] This cell line expresses high levels of P-glycoprotein as determined by flowcytometry using the monoclonal antibody (MRK 16) against this molecule.
The effects were examined of a 7-day exposure of selected compounds on the sensitivity of the cell line (K562/MMB) to the standard chemotherapeutic agents doxorubicin and vinblastine, using the MTT assay.
The cells were seeded at 1 x 10^4 cells per well in 96 well microlitre plates in a volume of 200 µl of RPMI 1640 medium containing 10 % fetal calf serum and incubated with doxorubicin (12.5 ng/ml) or vinblastine (3 ng/ml). The amounts of MDR modulators used were 0.03, 0.06, 0.125, 0.5, 1.0 and 2.0 µg/ml.
After incubation at 37 °C for 7 days, 20 µl MTT (i.e. 3-[4,5-dimethylthiazol-2-yl]2,5-diphenyl-tetrazolium bromide) at 5 mg/ml was added to each well and the plates incubated for a further 4 hours. The cells were washed with phosphate buffered saline and the intracellular formazan crystals solubilized with dimethylsulphoxide, and the absorbency measured spectrophotometrically at a test wavelength of 540 nm and a reference wavelength of 620 nm.

Row | Compound | IC50 [1] [µg/mL] | IC50 [2] [µg/mL] | IC50 [3] [µg/mL]
1 | CCN(CC)CCCN=c1cc2n(-c3ccc(Cl)c(Cl)c3)c3ccccc3nc-2cc1Nc1ccc(Cl)c(Cl)c1 [Compound B4154] | 0.296 | 0.118 | 0.353 (≈ 0.575 µM)
2 | CC1(C)CC(N=c2cc3n(-c4cc(Cl)cc(Cl)c4)c4ccccc4nc-3cc2Nc2cc(Cl)cc(Cl)c2)CC(C)(C)N1 [Compound B4121] | 0.722 | – | 2.25 (≈ 3.52 µM)
3 | Cc1ccc(Nc2cc3nc4ccccc4n(-c4ccc(C)cc4)c-3cc2=NC2CCNCC2)cc1 [Compound B4070, N,5-bis(4-methylphenyl)-3,5-dihydro-3-[(4-piperidyl)imino]-2-phenazinamine] | 0.193 | 0.054 | 0.159 (≈ 0.336 µM)
4 | CC1(C)CC(N=c2cc3n(-c4ccc(C(F)(F)F)cc4)c4ccccc4nc-3cc2Nc2ccc(C(F)(F)F)cc2)CC(C)(C)N1 [Compound B4103, N,5-bis(4-trifluoromethylphenyl)-3,5-dihydro-3[(2',2',6',6'-tetramethyl-4-piperidyl)imino]-2-phenazinamine] | 0.269 | 0.051 | 0.351 (≈ 0.55 µM)
5 | CC1(C)CC(N=c2cc3n(-c4cccc(C(F)(F)F)c4)c4ccc(Cl)cc4nc-3cc2Nc2cccc(C(F)(F)F)c2)CC(C)(C)N1 [Compound B4127, N,5-bis(3-trifluoromethylphenyl)-8-chloro-3,5-dihydro-3-[(2',2',6',6'-tetramethyl-4-piperidyl)-imino]-2-phenazinamine] | 0.168 | 0.07 | 0.425 (≈ 0.632 µM)
6 | CC(C)c1ccc(Nc2cc3nc4cc(Cl)ccc4n(-c4ccc(C(C)C)cc4)c-3cc2=NC2CC(C)(C)NC(C)(C)C2)cc1 [Compound B4159, N,5-bis(4-isopropylphenyl)-8-chloro-3,5-dihydro-3-[(2',2',6',6'-tetramethyl-4-piperidyl)-imino]-2-phenazinamine] | 0.514 | 0.13 | 0.912 (≈ 1.47 µM)
7 | CC1(C)CC(N=c2cc3n(-c4ccc(Cl)cc4Cl)c4ccccc4nc-3cc2Nc2ccc(Cl)cc2Cl)CC(C)(C)N1 [Compound B4128] | 0.215 | 0.059 | 0.383 (≈ 0.599 µM)

Now from value to molecule:

Row | IC50 [1] [µg/mL] | IC50 [2] [µg/mL] | IC50 [3] [µg/mL] | Compound
8 | 0.139 | < 0.05 | 0.197 (≈ 0.326 µM) | CC1(C)CC(N=c2cc3n(-c4ccc(Cl)cc4)c4ccc(Cl)cc4nc-3cc2Nc2ccc(Cl)cc2)CC(C)(C)N1 [Compound B4090]
9 | 0.227 | < 0.05 | 0.34 (≈ 0.481 µM) | CC1(C)CC(N=c2cc3n(-c4ccc(Cl)c(C(F)(F)F)c4)c4ccccc4nc-3cc2Nc2ccc(Cl)c(C(F)(F)F)c2)CC(C)(C)N1 [Compound B4163, N,5-bis[(3-trifluoromethyl)-4-chlorophenyl]-3,5-dihydro-3-[(2',2',6',6'-tetramethylpiperidyl)-imino]-2-phenazinamie]
10 | 0.21 | 0.178 | 0.316 (≈ 0.563 µM) | COc1ccc(Nc2cc3nc4ccccc4n(-c4ccc(OC)cc4)c-3cc2=NC2CC(C)(C)NC(C)(C)C2)cc1 [Compound B4174, N,5-bis(4-methoxyphenyl)-3,5-dihydro-3-[(2',2',6',6'-tetramethyl-4-piperidyl)-imino]-2-phenazinamine]
